Results taken from paper PMC4867491 (Oncogene, 2015).
Read-outs that look alike come from different tables or passages of the source.

How the values were obtained:
Format in all cases: cell-based, human
HeLa-C604Y = assay: Proliferation/colony formation assay; conditions: read-out: median IC50, three independent experiments
HeLa-C604F = assay: Proliferation/colony formation assay; conditions: read-out: median IC50, three independent experiments
DLD-1-S611R = assay: Proliferation/colony formation assay; conditions: read-out: median IC50, three independent experiments
HCT-116, DLD-1 and U2OS = conditions: read-out: IC50 (cell viability)
HCT-116-C604Y = assay: Proliferation/colony formation assay; conditions: read-out: median IC50, three independent experiments
HCT-116 = assay: Proliferation/colony formation assay; conditions: read-out: median IC50; HCT-116 parental; three independent experiments
HeLa-I598F = assay: Proliferation/colony formation assay; conditions: read-out: median IC50, three independent experiments
HeLa = assay: Proliferation/colony formation assay; conditions: read-out: median IC50; HeLa parental; three independent experiments
DLD-1 = assay: Proliferation/colony formation assay; conditions: read-out: median IC50; DLD-1 parental; three independent experiments
HCT-116-I531M = assay: Proliferation/colony formation assay; conditions: read-out: median IC50, three independent experiments
[1] = three cancer cell lines HCT-116, DLD-1 and U2OS, Supplementary Figures 2a-c

IC50 (HeLa-C604Y) | IC50 (HeLa-C604F) | IC50 (DLD-1-S611R) | IC50 (HCT-116, DLD-1 and U2OS; [1]) | IC50 (HCT-116-C604Y) | IC50 (HCT-116, DLD-1 and U2OS; Homo sapiens) | IC50 (HeLa-I598F) | IC50 (HCT-116-I531M) | Compound | IC50 (HCT-116) | IC50 (HeLa) | IC50 (DLD-1)
> 2 µM | > 2 µM | > 2 µM | 0.063 to 0.153 µM | > 2 µM | – | – | – | Cc1cc(N2CCOCC2)ccc1Nc1nc(NC2CCCCC2)c2[nH]cnc2n1 [MPI-0479605] | – | – | –
> 2 µM | – | – | > 0.15 µM | > 2 µM | – | – | – | CCc1cccc(CC)c1NC(=O)c1nn(C)c2c1CCc1cnc(Nc3ccc(C(=O)NC4CCN(C)CC4)cc3OC(F)(F)F)nc1-2 [NMS-P715] | – | – | –
– | – | – | – | – | 0.063 to 0.153 µM | – | – | c1nc2nc(Nc3ccc(N4CCOCC4)cc3)nc(NC3CCCCC3)c2[nH]1 [Reversine, reversine] | – | – | –
> 5 µM | 2.74 µM | > 5 µM | – | > 5 µM | – | 3.85 µM | 3.06 µM | AZ3146 | 0.56 µM | 1.33 µM | 0.719 µM
